# Experimental data reported in the supplement of paper PMC10307832.
# Assays:
# Assay in all cases: relative viability (nuclei count vs DMSO), 5 days (fraction); higher = more cells survive
# Doramapimod + AZD7762 = compound: Cc1ccc(-n2nc(C(C)(C)C)cc2NC(=O)Nc2ccc(OCCN3CCOCC3)c3ccccc23)cc1 [Doramapimod] + NC(=O)Nc1cc(-c2cccc(F)c2)sc1C(=O)N[C@H]1CCCNC1 [AZD7762] (partner 0.2 µM)
# How it was run: (§1)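 Relative viability is defined as nuclei in treated wells over nuclei in vehicle wells. Duplicate plates were run and medians reported. Lung cancer cell lines in 1536-well plates were dosed by pin tool one day after seeding, with one drug or with a fixed anchor-drug dose plus five library-drug doses (not always all listed) in √10 steps, and nuclei were counted after 5 days.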
# Doramapimod + Dasatinib = compound: Cc1ccc(-n2nc(C(C)(C)C)cc2NC(=O)Nc2ccc(OCCN3CCOCC3)c3ccccc23)cc1 [Doramapimod] + Cc1nc(Nc2ncc(C(=O)Nc3c(C)cccc3Cl)s2)cc(N2CCN(CCO)CC2)n1 [Dasatinib] (partner 0.075 µM)
# How it was run: as §1
# RAF265 + Decitabine = compound: Cn1c(Nc2ccc(C(F)(F)F)cc2)nc2cc(Oc3ccnc(-c4ncc(C(F)(F)F)[nH]4)c3)ccc21 [RAF265] + Nc1ncn([C@H]2C[C@H](O)[C@@H](CO)O2)c(=O)n1 [Decitabine] (partner 2 µM)
# How it was run: as §1
# Doramapimod + Phenformin = compound: Cc1ccc(-n2nc(C(C)(C)C)cc2NC(=O)Nc2ccc(OCCN3CCOCC3)c3ccccc23)cc1 [Doramapimod] + N=C(N)NC(=N)NCCc1ccccc1 [Phenformin] (partner 250 µM)
# How it was run: as §1
Cell Line,relative viability (Doramapimod + AZD7762; first compound 0.02 µM),relative viability (Doramapimod + AZD7762; first compound 0.06325 µM),relative viability (Doramapimod + AZD7762; first compound 0.2 µM),relative viability (Doramapimod + AZD7762; first compound 0.6325 µM),relative viability (Doramapimod + AZD7762; first compound 2 µM),relative viability (Doramapimod + Dasatinib; first compound 0.02 µM),relative viability (Doramapimod + Dasatinib; first compound 0.06325 µM),relative viability (Doramapimod + Dasatinib; first compound 0.2 µM),relative viability (Doramapimod + Dasatinib; first compound 0.6325 µM),relative viability (Doramapimod + Dasatinib; first compound 2 µM),relative viability (RAF265 + Decitabine; first compound 0.01 µM),relative viability (RAF265 + Decitabine; first compound 0.03162 µM),relative viability (RAF265 + Decitabine; first compound 0.1 µM),relative viability (RAF265 + Decitabine; first compound 1 µM),relative viability (Doramapimod + Phenformin; first compound 0.02 µM),relative viability (Doramapimod + Phenformin; first compound 0.06325 µM),relative viability (Doramapimod + Phenformin; first compound 0.2 µM),relative viability (Doramapimod + Phenformin; first compound 0.6325 µM),relative viability (Doramapimod + Phenformin; first compound 2 µM),relative viability (RAF265 + Decitabine; first compound 0.3162 µM)
HCC-827,0.281,0.3,0.195,0.588,0.116,0.272,0.238,0.286,0.355,0.142,0.341,0.325,0.294,0.333,0.418,0.416,0.376,0.432,0.286,–
HOP-62,0.629,0.676,0.585,0.647,0.651,0.618,0.705,0.633,0.843,0.594,0.223,0.215,0.238,0.186,0.685,0.706,0.753,0.682,0.646,0.226
LC-2-ad,0.826,0.916,0.874,0.988,0.84,0.464,0.514,0.638,0.561,0.391,0.778,0.814,0.884,0.516,0.571,0.619,0.641,0.517,0.487,0.773
LCLC-97TM1,0.323,0.328,0.289,0.168,0.304,0.837,0.87,0.768,0.699,0.591,0.248,0.203,0.191,0.122,0.456,0.424,0.488,0.38,0.269,0.159
LCLC-103H,0.908,0.78,0.795,0.978,0.762,0.451,0.488,0.374,0.448,0.44,0.767,0.714,0.682,0.367,0.322,0.345,0.298,0.322,0.32,0.695
LK-2,0.347,0.216,0.298,0.258,0.165,0.241,0.278,0.202,0.213,0.22,0.385,0.339,0.348,0.179,0.278,0.332,0.382,0.282,0.246,0.316
LOU-NH91,0.757,0.739,0.7,0.744,0.575,0.559,0.535,0.599,0.671,0.365,0.828,0.745,0.763,0.685,0.76,0.671,0.735,0.774,0.417,0.685
LU99A,0.349,0.37,0.339,0.339,0.326,0.488,0.498,0.413,0.612,0.552,0.814,0.842,0.652,0.302,0.768,0.851,0.942,0.846,0.712,0.477
NCI-H520,–,–,–,–,–,0.183,0.166,0.148,0.213,0.182,0.567,0.418,0.478,0.345,0.632,0.62,0.533,0.492,0.346,0.452
NCI-H661,–,–,–,–,–,0.703,0.855,1.04,1.19,0.909,0.692,0.527,0.435,0.378,0.297,0.272,0.274,0.289,0.308,0.442
NCI-H1563,–,–,–,–,–,0.437,0.478,0.44,0.82,0.421,–,–,–,–,0.653,0.682,0.653,0.806,0.739,–
NCI-H1623,–,–,–,–,–,0.534,0.522,0.497,0.495,0.521,–,–,–,–,0.635,0.636,0.57,0.354,0.544,–
NCI-H1648,0.653,0.695,0.63,0.548,0.59,–,–,–,–,–,0.453,0.557,0.518,0.391,–,–,–,–,–,0.4
NCI-H1650,–,–,–,–,–,0.366,0.294,0.338,0.402,0.217,0.424,0.439,0.426,0.472,0.464,0.419,0.482,0.655,0.233,0.4
NCI-H1703,–,0.118,0.108,0.0991,0.113,–,–,–,–,–,–,–,–,–,–,–,–,–,–,–
NCI-H2009,–,–,–,–,–,0.345,0.382,0.422,0.529,0.297,0.43,0.376,0.377,0.335,0.506,0.543,0.546,0.478,0.408,0.459
NCI-H2023,–,–,–,–,–,0.601,0.521,0.533,0.645,0.512,0.26,0.208,0.198,0.176,0.413,0.379,0.404,0.415,0.323,0.215
NCI-H2228,–,–,–,–,–,0.561,0.48,0.452,0.49,0.398,–,–,–,–,0.249,0.385,0.273,0.333,0.27,–
SK-LU-1,–,–,–,–,–,0.16,0.182,0.195,0.204,0.218,0.847,0.597,0.508,0.414,0.613,0.516,0.542,0.61,0.46,0.569
SK-MES-1,–,–,–,–,–,0.374,0.406,0.413,0.41,0.33,0.383,0.295,0.3,0.221,0.634,0.648,0.648,0.628,0.568,0.231
SW 1573,–,–,–,–,–,0.461,0.394,0.588,0.685,0.411,0.675,0.406,0.4,0.244,0.355,0.304,0.306,0.301,0.236,0.325
